According to patent publication US12528825B2, “Compounds and uses thereof” (Foghorn Therapeutics Inc., priority 2020, dated 2026):
“Also recorded” adds a separate entry of the source.

Experiments:
[1] = tested on: non-synovial control cancer cell lines (RD, HCT116, and Calu6); test: Crystal violet growth assay, non-synovial control cancer cell lines, day 14; type: cell-based; settings: treated daily, indicated concentrations, FIG. 8
Protocol: (§1) Procedure: Cells were seeded into 6-well or 12-well plates and were treated daily with a BRD9 degrader (Compound 1), a bromo-domain BRD9 binder (Compound 2), E3 ligase binder (lenalidomide), DMSO, or staurosporin (positive control for cell killing), at indicated concentrations. The number of cells was optimized for each cell line. Growth media was refreshed every 5 days. By day 14, medium was removed, cells were washed with PBS, and stained using 500 μL of 0.005% (w/v) crystal violet solution in 25% (v/v) methanol for at least 1 hour at room temperature. Subsequently plates were scanned on an Odyssey CLx Imaging system.

SYO1 cells [2] = test: Cell cycle analysis (Click-iT Plus EdU flow cytometry); type: cell-based, human; settings: 200 nM or 1 μM, 8 or 13 days, compared to DMSO and lenalidomide
Protocol: (§2) Procedure: SYO1 cells were treated for 8 or 13 days with DMSO, a BRD9 degrader (Compound 1) at 200 nM or 1 μM, or an E3 ligase binder (lenalidomide) at 200 nM. Compounds were refreshed every 5 days. Cell cycle analysis was performed using the Click-iT™ Plus EdU Flow Cytometry Assay (Invitrogen). The apoptosis assay was performed using the Annexin V-FITC Apoptosis Detection Kit (Sigma A9210). Assays were performed according to the manufacturer's protocol.

SYO1 cells [3] = test: Apoptosis assay (Annexin V-FITC); type: cell-based, human; settings: 200 nM or 1 μM, 8 days, compared to DMSO controls
Protocol: as §2

[4] = tested on: synovial sarcoma cell lines (SYO1, HS-SY-II, and ASKA); test: Crystal violet growth assay, synovial sarcoma cell lines, day 14; type: cell-based; settings: for inhibition of growth of synovial sarcoma cell lines: SYO1, HS-SY-II, ASKA, treated daily, indicated concentrations, day 14, FIG. 7
Protocol: as §1

[5] = tested on: non-synovial control cancer cell lines (293T, A549, G401); test: Growth of non-synovial control cancer cell lines (crystal violet, colony imaging); type: cell-based; settings: 1 μM or indicated doses, FIGS. 4-6
Protocol: (§3) Cells were treated with DMSO or the BRD9 degrader, Compound 1, at indicated concentrations, and proliferation was monitored from day 7 to day 14 by measuring confluency over time using an IncuCyte live cell analysis system (FIG. 4). Growth medium and compounds were refreshed every 3-4 days.
(§4) Cells were seeded into 12-well plates and treated with DMSO, 1 μM BRD9 inhibitor, Compound 2 (also known as BI-7273, see Martin et al, J Med Chem. 59(10):4462-4475 (2016); see structure of compound 2 below), or 1 μM BRD9 degrader, Compound 1.
(§5) The number of cells was optimized for each cell line. Growth medium and compounds were refreshed every 3-5 days. SYO1, Yamato, A549, 293T and HS-SY-II cells were fixed and stained at day 11. ASKA cells were fixed and stained at day 23. Staining was done by incubation with crystal violet solution (0.5 g Crystal Violet, 27 ml 37% Formaldehyde, 100 mL 10×PBS, 10 mL Methanol, 863 dH20 to 1 L) for 30 min followed by 3× washes with water and drying the plates for at least 24 h at room temperature. Subsequently plates were scanned on an Odyssey CLx Imaging system (FIG. 5).
(§6) Cells were seeded into 96-well ultra-low cluster plate (Costar, #7007) in 200 μL complete media and treated at day 2 with DMSO, Staurosporin, or BRD9 degrader, Compound 1, at indicated doses (FIG. 2C). Media and compounds were changed every 5 d and cell colonies were imaged at day 14.

[6] = tested on: synovial sarcoma cell lines (SYO1, Yamato, HS-SY-II, and ASKA); test: Growth of synovial sarcoma cell lines (IncuCyte confluency, crystal violet, colony imaging); type: cell-based; settings: 1 μM or indicated concentrations, FIGS. 4-6
Protocol: as §3, §4, §5, §6

[7] = tested on: SYO-1 human biphasic synovial sarcoma tumor cells; test: SYO-1 synovial sarcoma xenograft tumor growth in NOD SCID mice; type: in vivo; settings: 1 mg/kg, i.p., daily, 3 weeks, SYO-1 xenograft
Protocol: (§7) Method: NOD SCID mice (Beijing Anikeeper Biotech, Beijing) were inoculated subcutaneously on the right flank with the single cell suspension of SYO-1 human biphasic synovial sarcoma tumor cells (5×106) in 100 μL Dulbecco's Modified Eagle Medium (DMEM) with 10% fetal bovine serum (FBS). The mice were randomized into either control group [10% dimethyl sulfoxide (DMSO), 40% polyethylene glycol (PEG400) and 50% water], or treatment group D1 when the mean tumor size reached about 117 mm^3. Mice were dosed daily through intraperitoneal (i.p.) route over the course of 3 weeks. All dose volumes were adjusted by body weights in terms of mg/kg.

[8] = Tolerability (% body weight change) in the SYO-1 xenograft study; type: in vivo; settings: 1 mg/kg, i.p., daily, 3 weeks; NOD SCID mice
Protocol: as §7

BRD9 = biological target: T1, BRD9 (Homo sapiens, UniProt Q9H8M2); test: BRD9 western blot in synovial sarcoma tumors in vivo; parameters: species or system mice; settings: 1 mg/kg, i.p., 4 weeks; tumors collected 8, 72 and 168 hours post last dose; effect up to 168 hours after dose
T1 construct: Tumors were lysed with 1× RIPA lysis buffer; from tissue; host or cells: synovial sarcoma tumours collected from treated mice
T1 sequence (Q9H8M2 1-597): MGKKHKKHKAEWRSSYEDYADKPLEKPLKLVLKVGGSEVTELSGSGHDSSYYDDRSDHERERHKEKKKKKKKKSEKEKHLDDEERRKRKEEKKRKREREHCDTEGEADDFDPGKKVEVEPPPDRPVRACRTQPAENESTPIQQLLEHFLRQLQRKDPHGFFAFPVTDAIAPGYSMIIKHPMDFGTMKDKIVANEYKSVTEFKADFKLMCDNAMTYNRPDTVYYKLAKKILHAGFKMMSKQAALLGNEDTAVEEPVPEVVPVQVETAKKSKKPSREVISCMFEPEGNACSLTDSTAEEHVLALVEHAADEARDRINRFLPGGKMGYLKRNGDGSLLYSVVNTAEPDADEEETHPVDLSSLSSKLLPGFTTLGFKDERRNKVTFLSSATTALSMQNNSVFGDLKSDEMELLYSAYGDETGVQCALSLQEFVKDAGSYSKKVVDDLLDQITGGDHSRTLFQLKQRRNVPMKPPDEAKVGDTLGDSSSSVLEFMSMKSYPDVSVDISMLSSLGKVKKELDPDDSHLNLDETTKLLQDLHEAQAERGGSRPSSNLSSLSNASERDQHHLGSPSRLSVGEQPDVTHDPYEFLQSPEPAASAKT
Protocol: Method: Mice were treated with D1, 1 mg/kg, i.p. for 4 weeks. Mice were then euthanized, and tumors were collected at 8 hours, 72 hours, and 168 hours post last dose. Tumors were lysed with 1× RIPA lysis buffer (Boston BioProducts, BP-115D) with protease and phosphatase protein inhibitor (Roche Applied Science #04906837001 & 05892791001). Equal amounts of lysate (30 μg) were loaded in 4-12% Bis-Tris Midi Protein Gels in 1×MOPS buffer; samples ran at 120 V for 120 minutes. Protein was transferred to membrane with TransBlot at 250 mA for 150 minutes, and then membranes were blocked with Odyssey blocking buffer for 1 hour at room temperature. Membranes were hybridized overnight in cold room with primary antibodies. Images acquired using Li-COR imaging system (Li-COR Biotechnology, Lincoln, Nebraska).

Compound | inhibition of growth of non-synovial control cancer cell lines [1] | numbers of cells in the S-phase of the cell cycle (SYO1 cells [2]) | numbers of early- and late-apoptotic cells (SYO1 cells [3]) | inhibition of growth of synovial sarcoma cell lines [4] | growth inhibition compared with the other test compounds ([4]; all synovial cell lines) | inhibition of growth of non-synovial control cancer cell lines [5] | inhibition of growth of synovial sarcoma cell lines [6] | tumor growth [7] | tolerability based on % body weight change [8] | BRD9 level in tumor (western blot) (BRD9)
COc1cc(-c2cn(C)c(=O)c3cnccc23)cc(OC)c1CN(C)CC(=O)NCCOCCOCCNc1cccc2c1C(=O)N(C1CCC(=O)NC1=O)C2=O (centres unmarked) [Compound 1] | did not result in inhibition of the growth | reduced numbers of cells in the S-phase | increased numbers of early- and late-apoptotic cells | inhibition of the growth of the cells | most significant growth inhibition | does not result in inhibition of the growth | inhibition of the growth of the cells |  |  | 
COc1cc(-c2cn(C)c(=O)c3cnccc23)cc(OC)c1CN(C)C [Compound 2] | did not result in inhibition of the growth |  |  | inhibition of the growth of the cells |  | does not result in inhibition of the growth | inhibition of the growth of the cells |  |  | 
COc1cc(-c2cn(C)c(=O)c3cc(C(=O)NC4CCN(C5CCN(c6ccc7c(c6)C(=O)N(C6CCC(=O)NC6=O)C7)CC5)CC4(F)F)sc23)cc(OC)c1CN(C)C (centres unmarked) [Compound D1, 7-[4-[(dimethylamino)methyl]-3,5-dimethoxyphenyl]-N-[1′-[2-(2,6-dioxopiperidin-3-yl)-3-oxo-1H-isoindol-5-yl]-3,3-difluoro-[1,4′-bipiperidin]-4-yl]-5-methyl-4-oxothieno[3,2-c]pyridine-2-carboxamide] |  |  |  |  |  |  |  | tumor growth inhibition | well tolerated | complete degradation; also recorded: BRD9 inhibition
